Results as given in the supplement of paper PMC10307832.

How the values were obtained:
Test in all cases: relative viability (nuclei count vs DMSO), 5 days (fraction); higher = more cells survive
EHT 1864 + Trametinib = compound: C1COCCN1CC2=CC(=O)C(=CO2)OCCCCCSC3=C4C=CC(=CC4=NC=C3)C(F)(F)F [EHT 1864] + CC(=O)Nc1cccc(-n2c(=O)n(C3CC3)c(=O)c3c(Nc4ccc(I)cc4F)n(C)c(=O)c(C)c32)c1 [Trametinib] (partner 0.02 µM)
How it was run: (§1)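 Nuclei were stained with Hoechst during a one-step fixation (final 0.05% Triton X-100, 1% formaldehyde, 1 ug/ml Hoechst) carried out 5 days after dosing, then counted on 4× images. The cells, lung cancer lines in 1536-well plates, had been dosed by pin tool the day after seeding with one drug alone or a fixed anchor-drug dose plus five library-drug doses (not always all listed) in √10 steps. Relative viability is the nuclei count in treated wells divided by that in vehicle wells, and each value is the median of duplicate plates.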

EHT 1864 + Tozasertib = compound: C1COCCN1CC2=CC(=O)C(=CO2)OCCCCCSC3=C4C=CC(=CC4=NC=C3)C(F)(F)F [EHT 1864] + Cc1cc(Nc2cc(N3CCN(C)CC3)nc(Sc3ccc(NC(=O)C4CC4)cc3)n2)n[nH]1 [Tozasertib] (partner 0.1 µM)
How it was run: as §1

EHT 1864 + AZD7762 = compound: C1COCCN1CC2=CC(=O)C(=CO2)OCCCCCSC3=C4C=CC(=CC4=NC=C3)C(F)(F)F [EHT 1864] + NC(=O)Nc1cc(-c2cccc(F)c2)sc1C(=O)N[C@H]1CCCNC1 [AZD7762] (partner 0.2 µM)
How it was run: as §1

EHT 1864 = compound: C1COCCN1CC2=CC(=O)C(=CO2)OCCCCCSC3=C4C=CC(=CC4=NC=C3)C(F)(F)F [EHT 1864]
How it was run: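 Five library-drug doses spaced by √10 were pinned onto vehicle-anchored 1536-well plates of lung cancer cell lines that had been kept overnight at 37 °C. Cells went 5 days without medium change, then were fixed, permeabilised and Hoechst-stained together, imaged at 4× and counted by MetaXpress. Viability is the ratio of treated-well to vehicle-well nuclei, taken as a median over plates. Plates required control CV below 25% and at least one doubling.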

Cell Line	relative viability (EHT 1864 + Trametinib; first compound 0.04 µM)	relative viability (EHT 1864 + Trametinib; first compound 0.4 µM)	relative viability (EHT 1864 + Trametinib; first compound 1.265 µM)	relative viability (EHT 1864 + Trametinib; first compound 4 µM)	relative viability (EHT 1864 + Tozasertib; first compound 0.04 µM)	relative viability (EHT 1864 + Tozasertib; first compound 0.4 µM)	relative viability (EHT 1864 + Tozasertib; first compound 1.265 µM)	relative viability (EHT 1864 + Tozasertib; first compound 4 µM)	relative viability (EHT 1864 + AZD7762; first compound 0.04 µM)	relative viability (EHT 1864 + AZD7762; first compound 0.4 µM)	relative viability (EHT 1864 + AZD7762; first compound 1.265 µM)	relative viability (EHT 1864 + AZD7762; first compound 4 µM)	relative viability (EHT 1864; 0.04 µM)	relative viability (EHT 1864; 0.4 µM)	relative viability (EHT 1864; 1.265 µM)	relative viability (EHT 1864; 4 µM)	relative viability (EHT 1864 + Trametinib; first compound 0.1265 µM)	relative viability (EHT 1864 + Tozasertib; first compound 0.1265 µM)	relative viability (EHT 1864 + AZD7762; first compound 0.1265 µM)	relative viability (EHT 1864; 0.1265 µM)
NCI-H1944	0.426	0.42	0.39	0.387	0.283	0.277	0.234	0.292	0.5	0.511	0.563	0.665	1.09	1	1.01	0.879	–	–	–	–
EKVX	0.412	0.35	0.367	0.28	0.4	0.369	0.351	0.349	0.685	0.484	0.764	0.684	0.96	0.946	0.962	0.968	0.35	0.371	0.661	0.931
ChaGo-K-1	0.839	0.89	0.911	0.871	0.215	0.228	0.207	0.204	0.881	0.956	0.871	0.907	1.02	0.996	0.95	0.992	0.85	0.221	0.834	0.976
NCI-H23	0.347	0.31	0.396	0.419	0.397	0.373	0.291	0.367	0.203	0.223	0.198	0.221	0.909	0.912	1.02	1.03	0.413	0.372	0.231	0.696
EMC-BAC-2	0.759	0.889	0.924	0.99	0.304	0.314	0.236	0.26	1.24	1.1	1.09	0.974	1.02	1.04	0.993	0.971	0.721	0.253	0.944	0.896
LOU-NH91	0.757	0.802	0.761	0.74	0.614	0.67	0.609	0.69	0.746	0.759	0.735	0.755	0.973	1.05	1.04	0.892	0.747	0.551	0.67	0.909
LU99A	0.531	0.487	0.452	0.565	0.295	0.253	0.244	0.216	0.445	0.359	0.308	0.403	0.883	0.968	1	0.893	0.428	0.254	0.203	0.758
NCI-H1395	1.07	0.977	0.978	1.08	0.831	0.772	0.719	0.723	0.394	0.389	0.437	0.436	0.933	1.01	0.86	0.861	0.908	0.65	0.37	0.752
NCI-H460	–	0.222	0.133	0.134	0.398	0.384	0.174	0.152	0.642	0.635	0.436	0.568	1.01	0.966	0.965	0.857	0.108	0.453	0.541	0.921
201T	0.702	0.681	0.693	0.605	0.916	0.983	0.853	0.864	0.578	0.61	0.594	0.652	0.97	1.02	0.974	0.913	0.707	0.912	0.575	0.92
NCI-H2170	0.893	0.911	0.886	0.911	0.7	0.775	0.692	0.658	0.77	0.9	0.86	0.963	0.904	0.996	1.06	1.01	0.779	0.52	0.764	0.889
NCI-H2405	0.688	0.744	0.644	0.612	0.8	0.847	0.633	0.726	0.8	0.728	0.687	0.697	1.07	0.994	0.821	0.994	0.587	0.678	0.657	1
NCI-H1755	0.732	0.768	0.701	0.726	0.606	0.483	0.487	0.536	0.438	0.405	0.402	0.456	0.989	0.927	0.979	0.938	0.782	0.51	0.424	0.955
NCI-H2087	0.188	0.211	0.167	0.215	0.373	0.291	0.241	0.202	1.25	1.2	1.25	1.23	1.12	0.956	0.832	0.942	–	–	–	–
NCI-H727	0.389	0.382	0.374	0.421	0.574	0.611	0.503	0.592	0.579	0.587	0.555	0.794	0.924	0.936	0.979	0.946	0.386	0.573	0.693	0.909
NCI-H650	0.995	0.898	1.23	1.11	0.671	0.708	0.642	0.722	0.994	1.13	1.1	1.06	0.894	0.968	1.01	1.03	0.92	0.667	0.612	0.846

Cell Line	relative viability (EHT 1864 + Trametinib; first compound 0.04 µM)	relative viability (EHT 1864 + Trametinib; first compound 0.4 µM)	relative viability (EHT 1864 + Trametinib; first compound 1.265 µM)	relative viability (EHT 1864 + Trametinib; first compound 4 µM)	relative viability (EHT 1864 + Tozasertib; first compound 0.04 µM)	relative viability (EHT 1864 + Tozasertib; first compound 0.4 µM)	relative viability (EHT 1864 + Tozasertib; first compound 1.265 µM)	relative viability (EHT 1864 + Tozasertib; first compound 4 µM)	relative viability (EHT 1864 + AZD7762; first compound 0.04 µM)	relative viability (EHT 1864 + AZD7762; first compound 0.4 µM)	relative viability (EHT 1864 + AZD7762; first compound 1.265 µM)	relative viability (EHT 1864 + AZD7762; first compound 4 µM)	relative viability (EHT 1864; 0.04 µM)	relative viability (EHT 1864; 0.4 µM)	relative viability (EHT 1864; 1.265 µM)	relative viability (EHT 1864; 4 µM)	relative viability (EHT 1864 + Trametinib; first compound 0.1265 µM)	relative viability (EHT 1864 + Tozasertib; first compound 0.1265 µM)	relative viability (EHT 1864 + AZD7762; first compound 0.1265 µM)	relative viability (EHT 1864; 0.1265 µM)
LK-2	0.673	0.719	0.596	1.02	0.162	0.169	0.198	0.164	0.462	0.296	0.443	0.286	1.04	0.979	1.04	0.929	0.48	–	–	0.793
NCI-H1993	0.579	0.5	0.485	0.543	0.581	0.549	0.575	0.536	0.71	0.827	0.775	0.83	0.965	0.957	1.03	0.873	–	–	–	–
NCI-H838	0.5	0.553	0.514	0.536	0.244	0.26	0.241	0.223	0.959	0.886	0.872	0.959	0.915	0.99	1.01	1	0.466	0.227	0.895	0.851
NCI-H1437	0.531	0.56	0.485	0.45	0.428	0.4	0.343	0.377	1.1	1.09	1.02	0.889	1.05	0.936	0.839	0.762	0.411	0.303	1.1	0.94
NCI-H358	0.138	0.153	0.14	0.124	0.113	0.104	0.102	0.0985	0.558	0.536	0.556	0.456	0.888	1.06	0.939	0.933	0.126	0.128	0.587	0.834
NCI-H1648	0.545	0.44	0.4	0.607	0.486	0.396	0.411	0.441	0.72	0.609	0.662	0.866	1.2	0.954	1.02	1.43	–	0.376	–	0.735
LCLC-103H	0.701	0.655	0.588	0.55	0.455	0.543	0.441	0.475	0.823	0.818	0.698	0.5	0.987	1.01	1.12	1.02	0.612	0.305	0.686	0.903
NCI-H441	0.365	0.544	0.573	0.51	0.55	0.596	0.507	0.481	1.01	1.04	1.11	1.5	1.03	0.941	1.12	1.17	–	0.544	–	0.747
BEN	0.819	1.09	0.928	1.1	0.544	0.547	0.461	0.481	0.681	0.86	0.665	0.802	0.864	1.05	0.871	0.967	0.949	0.433	0.632	0.812
LC-2-ad	0.91	0.895	0.868	0.79	0.483	0.516	0.391	0.487	0.808	0.88	0.855	0.806	0.966	1.03	0.946	0.934	0.816	–	0.634	0.716
RERF-LC-KJ	0.896	0.866	0.826	0.832	0.493	0.523	0.381	0.352	0.893	0.96	0.939	1.43	1.02	0.936	0.994	0.956	0.868	0.473	0.873	0.928
SW 900	0.686	0.77	0.796	0.758	0.531	0.49	0.577	0.481	0.582	0.681	0.632	0.59	0.942	0.929	0.929	0.782	–	–	–	–
NCI-H1915	0.295	0.283	0.28	0.286	0.413	0.41	0.406	0.392	0.728	0.681	0.711	0.719	0.964	1.01	0.98	0.92	–	–	–	–
NCI-H596	0.796	0.812	0.738	0.857	0.843	0.869	1.06	0.754	1.21	1.1	1.04	1.46	0.947	1.02	0.929	0.991	0.658	0.733	1.04	0.829
NCI-H2126	0.614	0.545	0.503	0.548	0.839	0.819	0.8	0.81	1.02	0.95	0.93	0.957	0.983	0.986	0.985	0.999	0.568	0.689	0.866	0.914
LXF-289	0.676	0.615	0.616	0.657	0.201	0.196	0.209	0.203	1.14	1.03	1.07	1.1	0.961	0.95	0.961	0.886	0.609	0.144	1.01	0.932
